Test results as given in US7390660B2, “Methods for growing mammalian cells in vitro” (Hoffman-La Roche Inc., priority 2002, dated 2008).
Values joined by “and” are separate entries in the source; they are usually repeats but may differ in a detail not shown here. Equal entries are not always repeated.

Experiments:
[1] = tested on: myeloma cell line (Sp2/0); assay: Fermentation in dialysis mode, 1000 L production bioreactor, with addition of citrate; format: cell-based
Excerpt: The cells of a myeloma cell line (Sp2/0) were thawed and expanded up to 2 L in spinner flasks over a period of approximately 14 days for the inoculation of a 10 L bioreactor. After 2 to 4 days the cells were split or transferred to a 100 L bioreactor and further cultivated for 2 to 4 days. The 100 L bioreactor served as inoculum for the 1000 L production bioreactor. For each inoculum step a starting cell density of about 0.2 to about 0.4×10^6 viable cells per mL was used.
The production bioreactor ran in a dialysis mode. The bioreactor was a stirred tank reactor with a working volume of about 900 to about 1300 L. Aeration was performed by sparging. The following process parameters were controlled: pH, temperature, pO^2, pressure and agitation rate. The bioreactor was equipped for dialysis mode with hollow fibre cartridges. The cartridges were connected to an external loop with a dialysis medium reservoir. The dialysis of the culture was started 2 to 4 days after inoculation. During fermentation the reservoir was repeatedly filled up with fresh dialysis medium. Some medium components were fed as separate sterile solutions to the bioreactor. These comprise glucose, amino acids, vitamins, and trace elements.
Fermentation was terminated after a maximum of 16 days.
The citrate was added to the fermentation medium and to the dialysis medium.

[2] = tested on: myeloma cell line (Sp2/0); assay: Fermentation in fed batch mode, 10 L bioreactor, with addition of citrate; format: cell-based; conditions: 2.4 mmol/L citrate, 10 L scale, single runs and mean
Procedure: The cells of a myeloma cell line were thawed (Sp2/0) and expanded up to 2 L in spinner flasks for the inoculation of a 10 L bioreactor. The production bioreactor ran in a fed batch mode. The bioreactor was a stirred tank reactor with a working volume of from about 9 to about 13 L. Aeration was performed by sparging. The following process parameters were controlled: pH, temperature, pO2, pressure and agitation rate. Feeding of the culture was started 2 to 4 days after inoculation. Components including glucose, amino acids, vitamins, and trace elements were fed as separate sterile solutions to the bioreactor. Fermentation was terminated after maximum of 10 days.

O=C(O)CC(O)(CC(=O)O)C(=O)O [Citrate]
Amount of alkali required to adjust a constant pH value reduced to, % of the control [1]: about 34% | Reduction of the specific consumption rate for glucose ([1]; 1000 L scale, versus runs without citrate, printed 'reduced ... about 44%'): about 44% | Specific consumption rate of glucose [2]: 443 μg/10^6 cells x day and 715 μg/10^6 cells x day and 451 μg/10^6 cells x day | Specific production rate of lactate [2]: 230 μg/10^6 cells x day and 392 μg/10^6 cells x day and 304 μg/10^6 cells x day | Specific consumption rate of glucose ([2]; mean): 536 μg/10^6 cells x day
